Test [1] relates to Corynebacterium spp. HM-784. The conditions noted are these: cited from earlier work.
Test [2] concerns Bacteroides fragilis HM-709. The conditions noted are these: cited from earlier work.
Test [3] concerns C. difficile ATCC 43255. Nature of the test: Determination of minimal-inhibitory concentrations (microdilution), C. difficile ATCC 43255. The class given is cell-based, Clostridioides difficile. The conditions noted are these: Clostridioides difficile. On the technique in general: Broth dilution looks for growth in wells or tubes with falling amounts of substance.
For test [4], the system named is Lactobacillus reuteri HM-102. The conditions noted are these: cited from earlier work.
Test [5] has as its system Bifidobacterium longum HM-846. The conditions noted are these: cited from earlier work.
The test system of another test is S. aureus. Nature of the test: MIC against S. aureus strains. The class given is cell-based.
For another test, the system named is Eubacterium sp. HM-178. The conditions noted are these: cited from earlier work.
Test [6] has as its system C. difficile ATCC 43255. The conditions noted are these: cited from earlier work.
Test [7] relates to C. difficile ATCC 43255. Nature of the test: Minimal-bactericidal concentration (MBC). The class given is cell-based, Clostridioides difficile. Conditions: MBC/MIC≤4 indicates bactericidal.
The test system of the next test is P. aeruginosa ATCC27853. As to the kind of experiment: MIC against P. aeruginosa. Conditions: Pseudomonas aeruginosa; P. aeruginosa ATCC27853; read-out: MIC. The class given is cell-based.
For test [8], the system named is S. haemolyticus ATCC 29970. As to the kind of experiment: MIC against S. haemolyticus. The class given is cell-based. The conditions noted are these: Staphylococcus haemolyticus, ATCC29970.
The test system of a further test is E. aerogenes ATCC35029. Nature of the test: MIC against E. aerogenes. The class given is cell-based. Conditions: Klebsiella aerogenes; E. aerogenes ATCC35029; read-out: MIC.
The subject of another test is Gram-negative bacteria. The class given is cell-based.
Another test deals with A. baumanii ATCC17961. Nature of the test: MIC against A. baumanii. The class given is cell-based. The conditions noted are these: Acinetobacter baumannii; A. baumanii ATCC17961; read-out: MIC.
The test system of the next test is K. pneumoniae ATCC700603. As to the kind of experiment: MIC against K. pneumoniae. The class given is cell-based. The conditions noted are these: Klebsiella pneumoniae; K. pneumoniae ATCC700603; read-out: MIC.
The subject of a further test is E. faecium. Nature of the test: MIC against E. faecium strains. The class given is cell-based.
[9] abbreviates: ATCC43255, 24 h, C. difficile ATCC 43255, 24 h, read-out: MIC (μg/mL) 24 h.
Where [10] appears, read: ATCC43255, Table 1, strain ATCC 43255, read-out: MIC C. difficile.
The mark [11] stands for this setting: Staphylococcus aureus, ATCC29213, 24 h, S. aureus ATCC 29213, 24 h, read-out: MIC (μg/mL) 24 h.
Setting [12] is: C. difficile ATCC 43255, earlier publication.
The mark [13] stands for this setting: S. haemolyticus ATCC 29970, read-out: MIC.
Setting [14] is: Staphylococcus aureus, S. aureus VRS1, read-out: MIC.
Where [15] appears, read: Enterococcus faecium, read-out: MIC.

In brackets after ≈: the same amount, converted by molar mass. Like-named read-outs stand apart in the source and are kept apart here.

Here are results for five compounds from patent US20260125371A1, “METHOD FOR INHIBITING CLOSTRIDIOIDES DIFFICILE SPORE GERMINATION” (UNIVERSITY OF NOTRE DAME DU LAC, priority 2022, published 2026).

For the compound `Oc1ccc(-c2nc(-c3ccc(OC4CCCC4)cc3)no2)cc1` [Compound 2], the MIC in test [1] was 0.5 µg/mL (≈ 1.55 µM); in [2], 2 µg/mL (≈ 6.2 µM); in the test on C. difficile ATCC 43255 [3] (setting [9]), 2 µg/mL (≈ 6.2 µM); with C. difficile ATCC 43255 [3] (setting [10]), 2 µg/mL (≈ 6.2 µM); in test [4], greater than 128 µg/mL; in test [5], 1 µg/mL (≈ 3.1 µM). The MIC was 2 µg/mL (≈ 6.2 µM) in the test with S. aureus (setting [11]); 4 µg/mL (≈ 12.4 µM) with Eubacterium sp. HM-178; 2 µg/mL (≈ 6.2 µM) in the test on C. difficile ATCC 43255 [6] (C. difficile ATCC43255); 2 µg/mL (≈ 6.2 µM) with C. difficile ATCC 43255 [6] (setting [12]); 2 µg/mL (≈ 6.2 µM) with C. difficile ATCC 43255 [6] (strain ATCC43255).

In the case of `CCc1c(Cl)c(O)c(Cl)c(O)c1C(=O)O[C@H]1[C@H](O)[C@H](OC)[C@H](OC/C2=C\C=C\C[C@H](O)/C(C)=C/[C@H](CC)[C@@H](O[C@@H]3OC(C)(C)[C@@H](OC(=O)C(C)C)[C@H](O)[C@@H]3O)/C(C)=C/C(C)=C/C[C@@H]([C@@H](C)O)OC2=O)O[C@@H]1C` [FDX, fidaxomicin], the bactericidal or bacteriostatic result in the test with C. difficile ATCC 43255 [7] is recorded as “bactericidal”. The MIC was less than 0.06 µg/mL in test [1]; greater than 32 µg/mL in test [2]; greater than 128 µg/mL in the test with P. aeruginosa ATCC27853; 16 µg/mL (≈ 15.1 µM) in [8] (setting [13]); greater than 32 µg/mL in test [4]; greater than 128 µg/mL in the test on E. aerogenes ATCC35029. The MIC in [5] is less than 0.01 µg/mL; with S. aureus (setting [14]), 64 µg/mL (≈ 60.5 µM); with Eubacterium sp. HM-178, 16 µg/mL (≈ 15.1 µM); with C. difficile ATCC 43255 [6] (C. difficile ATCC43255), 0.06 µg/mL (≈ 0.0567 µM); with C. difficile ATCC 43255 [6] (strain ATCC43255), 0.06 µg/mL (≈ 0.0567 µM); with A. baumanii ATCC17961 it was greater than 128 µg/mL. Moreover, the figures for the MIC in the test with K. pneumoniae ATCC700603, in the test with E. faecium (E. faecium 106 (Van R)) and in the test on E. faecium (setting [15]) were greater than 128 µg/mL, greater than 16 µg/mL and greater than 16 µg/mL, respectively. The “activity against Gram-negative organisms” value with Gram-negative bacteria was “no activity”.

As for `O=[N+]([O-])c1cnc(-c2nc(-c3ccc(OC4CCCC4)cc3)no2)[nH]1` [Compound 57, 3-(4-(Cyclopentyloxy)phenyl)-5-(4-nitro-1H-imidazol-2-yl)-1,2,4-oxadiazole], the bactericidal or bacteriostatic result in the test with C. difficile ATCC 43255 [7] is “bactericidal”. The MIC is greater than 128 µg/mL in the test on P. aeruginosa ATCC27853; 32 µg/mL (≈ 93.8 µM) in test [8] (setting [13]); 0.125 µg/mL (≈ 0.366 µM) in the test with C. difficile ATCC 43255 [3] (setting [9]); 0.25 µg/mL (≈ 0.732 µM) in the test with C. difficile ATCC 43255 [3] (ATCC43255, C. difficile ATCC43255, read-out: ATCC43255 MIC); 0.25 µg/mL (≈ 0.732 µM) in the test on C. difficile ATCC 43255 [3] (ATCC43255, C. difficile ATCC43255, read-out: MIC); 0.25 µg/mL (≈ 0.732 µM) in the test with C. difficile ATCC 43255 [3] (setting [10]). For the same compound, the MIC is 0.25 µg/mL (≈ 0.732 µM) in the test on C. difficile ATCC 43255 [3] (ATCC43255, strain ATCC43255, read-out: MIC); greater than 128 µg/mL in the test with E. aerogenes ATCC35029; 64 µg/mL (≈ 188 µM) in the test on S. aureus (setting [14]); 32 µg/mL (≈ 93.8 µM) in the test with S. aureus (Staphylococcus aureus, S. aureus VRS2, read-out: MIC); greater than 128 µg/mL with A. baumanii ATCC17961; greater than 128 µg/mL in the test on K. pneumoniae ATCC700603. Besides, the MIC against E. faecium (E. faecium 106 (Van R)) and in the test on E. faecium (setting [15]) was 128 µg/mL (≈ 375 µM) throughout. For the same compound, the “activity against Gram-negative organisms” value in the test with Gram-negative bacteria is given as “no activity”.

As to `Cc1ncc([N+](=O)[O-])n1CCO` [MTZ, metronidazole], the bactericidal or bacteriostatic entry in the test on C. difficile ATCC 43255 [7] was “bactericidal”. The MIC in test [1] was greater than 32 µg/mL; in the test on P. aeruginosa ATCC27853, greater than 128 µg/mL; in test [8], greater than 256 µg/mL; in test [4] it was greater than 32 µg/mL; in the test on E. aerogenes ATCC35029 it was greater than 128 µg/mL; in test [5], 0.05 µg/mL (≈ 0.292 µM). In addition, the MIC against S. aureus (S. aureus VRS2) is greater than 256 µg/mL; with S. aureus (Staphylococcus aureus) it was greater than 256 µg/mL; in the test on S. aureus (Staphylococcus aureus, ATCC27660), greater than 256 µg/mL; in the test on S. aureus (Staphylococcus aureus, ATCC29213), greater than 256 µg/mL; in the test with A. baumanii ATCC17961, greater than 128 µg/mL; in the test on K. pneumoniae ATCC700603, greater than 128 µg/mL. Further, the MIC in the test on E. faecium (E. faecium 106 (Van R)) was greater than 16 µg/mL; in the test on E. faecium (Enterococcus faecium, NCTC7171, E. faecium NCTC 7171, read-out: MIC), greater than 128 µg/mL; in the test with E. faecium (setting [15]) it was greater than 16 µg/mL. Besides, in the test with Gram-negative bacteria, the “activity against Gram-negative organisms” value was “no activity”.

In the case of `FC(F)(F)c1ccc(Oc2ccc(-c3noc(-c4ccc5[nH]ccc5c4)n3)cc2)cc1` [Compound 1], the MIC in [1] is 2 µg/mL (≈ 4.75 µM); in test [2] it was 4 µg/mL (≈ 9.49 µM); in the test with C. difficile ATCC 43255 [3] (setting [9]), 2 µg/mL (≈ 4.75 µM); in the test with C. difficile ATCC 43255 [3] (setting [10]) it was 4 µg/mL (≈ 9.49 µM); in [4], greater than 128 µg/mL; in [5], 0.25 µg/mL (≈ 0.593 µM). The MIC in the test with S. aureus (setting [11]) is 4 µg/mL (≈ 9.49 µM); with Eubacterium sp. HM-178, 2 µg/mL (≈ 4.75 µM); in the test with C. difficile ATCC 43255 [6] (C. difficile ATCC43255) it was 2 µg/mL (≈ 4.75 µM); in the test with C. difficile ATCC 43255 [6] (setting [12]) it was 4 µg/mL (≈ 9.49 µM); in the test on C. difficile ATCC 43255 [6] (strain ATCC43255), 2 µg/mL (≈ 4.75 µM).
